Results taken from patent publication US20260274804A1, “PHENOLIC COMPOUNDS BLOCKING Nav 1.7 AND/OR Nav 1.8, PROCESSES FOR THE PREPARATION THEREOF, COMPOSITIONS, USES, METHODS OF TREATMENT USING SAME AND KITS” (Eurofarma Laboratórios S.A., priority 2023, published 2026).

Legend:
[1] = molecular target: T1, human sodium channels Nav 1.8 (Homo sapiens, UniProt Q9Y5Y9); assay: Automated whole-cell voltage-clamp (ScreenPatch 384P) on CHO cells stably expressing Nav 1.8; format: cell-based; conditions: inactivation step -40 mV 8 s, test pulse 10 mV, room temperature, exposure at least five minutes, read-out: Nav1.8 IC50
T1 construct: expressed in transfected cells
T1 sequence (Q9Y5Y9 whole entry): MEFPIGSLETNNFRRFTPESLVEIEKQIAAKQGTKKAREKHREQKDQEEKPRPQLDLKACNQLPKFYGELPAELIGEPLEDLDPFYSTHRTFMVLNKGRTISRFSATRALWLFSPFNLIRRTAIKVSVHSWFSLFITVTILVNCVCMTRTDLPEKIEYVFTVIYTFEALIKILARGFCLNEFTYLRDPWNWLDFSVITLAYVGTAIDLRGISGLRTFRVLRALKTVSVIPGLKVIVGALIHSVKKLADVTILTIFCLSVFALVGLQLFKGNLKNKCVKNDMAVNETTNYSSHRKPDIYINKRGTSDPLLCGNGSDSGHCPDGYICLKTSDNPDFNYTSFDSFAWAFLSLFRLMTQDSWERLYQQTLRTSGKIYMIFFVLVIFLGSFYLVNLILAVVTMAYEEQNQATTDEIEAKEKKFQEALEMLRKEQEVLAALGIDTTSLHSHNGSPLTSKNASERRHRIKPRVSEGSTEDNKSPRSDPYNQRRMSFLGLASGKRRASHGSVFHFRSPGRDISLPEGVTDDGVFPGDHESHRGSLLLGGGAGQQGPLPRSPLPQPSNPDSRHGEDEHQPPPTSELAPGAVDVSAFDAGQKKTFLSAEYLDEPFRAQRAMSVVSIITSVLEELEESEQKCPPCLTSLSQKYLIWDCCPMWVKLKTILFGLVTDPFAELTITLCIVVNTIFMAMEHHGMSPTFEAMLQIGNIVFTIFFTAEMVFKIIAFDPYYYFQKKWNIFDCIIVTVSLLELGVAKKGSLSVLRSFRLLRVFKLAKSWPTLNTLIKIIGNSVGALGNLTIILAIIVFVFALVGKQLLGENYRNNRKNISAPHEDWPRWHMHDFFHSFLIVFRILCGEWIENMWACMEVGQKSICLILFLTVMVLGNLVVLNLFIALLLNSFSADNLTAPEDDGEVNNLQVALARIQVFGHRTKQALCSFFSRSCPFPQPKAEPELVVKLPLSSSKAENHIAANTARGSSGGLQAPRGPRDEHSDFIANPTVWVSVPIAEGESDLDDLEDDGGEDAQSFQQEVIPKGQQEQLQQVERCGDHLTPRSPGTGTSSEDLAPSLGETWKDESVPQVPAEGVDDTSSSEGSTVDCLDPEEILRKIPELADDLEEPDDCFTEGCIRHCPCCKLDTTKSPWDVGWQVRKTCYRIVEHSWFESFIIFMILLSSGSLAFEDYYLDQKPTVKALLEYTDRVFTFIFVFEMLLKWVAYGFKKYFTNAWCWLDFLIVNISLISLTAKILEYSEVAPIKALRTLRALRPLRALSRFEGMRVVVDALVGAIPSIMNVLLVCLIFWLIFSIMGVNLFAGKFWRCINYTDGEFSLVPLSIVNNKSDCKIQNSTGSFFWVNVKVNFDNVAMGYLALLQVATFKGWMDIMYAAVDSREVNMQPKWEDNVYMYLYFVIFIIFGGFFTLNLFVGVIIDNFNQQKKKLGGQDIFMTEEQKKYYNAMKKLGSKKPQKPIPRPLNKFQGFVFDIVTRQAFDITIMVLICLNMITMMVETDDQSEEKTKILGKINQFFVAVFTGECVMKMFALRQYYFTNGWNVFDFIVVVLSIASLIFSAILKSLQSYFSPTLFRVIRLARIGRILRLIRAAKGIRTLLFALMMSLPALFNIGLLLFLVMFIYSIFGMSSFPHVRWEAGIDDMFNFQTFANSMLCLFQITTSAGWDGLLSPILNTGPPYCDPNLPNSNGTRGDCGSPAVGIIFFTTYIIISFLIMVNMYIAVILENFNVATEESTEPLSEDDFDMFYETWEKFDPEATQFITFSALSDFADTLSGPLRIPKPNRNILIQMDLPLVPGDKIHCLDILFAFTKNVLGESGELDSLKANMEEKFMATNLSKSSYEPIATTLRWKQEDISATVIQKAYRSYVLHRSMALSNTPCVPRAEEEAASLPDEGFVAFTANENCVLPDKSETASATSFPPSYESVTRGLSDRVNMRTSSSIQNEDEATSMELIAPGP
Procedure: (§1) Biological assays were performed on Chinese hamster ovary (CHO) cells that express human sodium channels Nav 1.8 or Nav 1.7 in a stable manner.
(§2) The experimental protocol voltage-clamp using the whole cell configuration was established on the automated ScreenPatch® 384P platform (SP384PE, Nanion Technologies, Livingston, NJ) and the results were recorded with a Nanion 384-well Patch Clamp chip (NPC) (Nanion Technologies, Livingston, NJ).
(§3) Formula I compounds were diluted in eight concentrations in the extracellular solution composed of physiological saline solution, buffered with HEPES (mM): NaCl, 137; KCl, 4; CaCl2, 3.8; MgCl2, 1; HEPES, 10; Glucose, 10; pH 7.4. The […], 50; CsF, 90; MgCl2, 5; EGTA, 5; HEPES, 10; pH 7.2. The duration of exposure of each compound with cells expressing Nav 1.7 or Nav 1.8 was at least five minutes, and the assays were performed at room temperature.
(§4) The measurements of the sodium currents of Nav 1.8 and Nav 1.7 were obtained using the voltage protocol described below.
(§5) A holding voltage of −100 mV was established followed by an inactivation voltage step at −40 mV for 8 seconds, followed by a step of −100 mV for 20 ms, followed by a 20 ms step for 10 mV for Nav 1.8 or 0 mV for Nav 1.7 (TP1A) before returning to the holding voltage of −100 mV.
(§6) The protocol was repeated at a frequency of 0.05 Hz and the amplitude of the current was quantified throughout the recording of the TP1A phase. The variation in the peak current amplitude was evaluated according to the Formula described below, after exposing the cells expressing the channels to each concentration of the different compounds:
(§7) [formula] • wherein […] and ITP1A,molecule represent the peaks of sodium current input into TP1A before exposure to the compound and in the presence of the compound, respectively.
(§8) The decrease in the peak current amplitude, after the exposure of the cells to the compounds, was used to calculate the percentage of relative blockage of the channels in relation to the positive control according to the Formula below:
(§9) [formula] • where % V and % CP represent the means of the values of current inhibition with a vehicle (DMSO) and positive controls, respectively. The sodium currents of the positive control were considered as 100%:
(§10) [formula] • wherein [Test] represents the concentration of the molecule evaluated, IC50 is the concentration of the compound that generates half of the maximum inhibition, N is Hill's coefficient, and % Blockage' is the percentage of sodium channel current (Nav 1.8 and Nav 1.7) inhibited at each concentration of the molecule evaluated. Data were obtained by nonlinear regression (nonlinear least squares) with XLfit for Excel (Microsoft, Redmond, WA).
(§11) The compounds were tested in at least one assay to obtain the value of CI50. For compounds that were tested in two or more assays, the results are described as the means of the CI50 values.

[2] = molecular target: T2, human sodium channels Nav 1.7 (Homo sapiens, UniProt Q15858); assay: Automated whole-cell voltage-clamp (ScreenPatch 384P) on CHO cells stably expressing Nav 1.7; format: cell-based; conditions: inactivation step -40 mV 8 s, test pulse 0 mV, room temperature, exposure at least five minutes, read-out: Nav1.7 IC50
T2 construct: expressed in transfected cells
T2 sequence (Q15858 whole entry): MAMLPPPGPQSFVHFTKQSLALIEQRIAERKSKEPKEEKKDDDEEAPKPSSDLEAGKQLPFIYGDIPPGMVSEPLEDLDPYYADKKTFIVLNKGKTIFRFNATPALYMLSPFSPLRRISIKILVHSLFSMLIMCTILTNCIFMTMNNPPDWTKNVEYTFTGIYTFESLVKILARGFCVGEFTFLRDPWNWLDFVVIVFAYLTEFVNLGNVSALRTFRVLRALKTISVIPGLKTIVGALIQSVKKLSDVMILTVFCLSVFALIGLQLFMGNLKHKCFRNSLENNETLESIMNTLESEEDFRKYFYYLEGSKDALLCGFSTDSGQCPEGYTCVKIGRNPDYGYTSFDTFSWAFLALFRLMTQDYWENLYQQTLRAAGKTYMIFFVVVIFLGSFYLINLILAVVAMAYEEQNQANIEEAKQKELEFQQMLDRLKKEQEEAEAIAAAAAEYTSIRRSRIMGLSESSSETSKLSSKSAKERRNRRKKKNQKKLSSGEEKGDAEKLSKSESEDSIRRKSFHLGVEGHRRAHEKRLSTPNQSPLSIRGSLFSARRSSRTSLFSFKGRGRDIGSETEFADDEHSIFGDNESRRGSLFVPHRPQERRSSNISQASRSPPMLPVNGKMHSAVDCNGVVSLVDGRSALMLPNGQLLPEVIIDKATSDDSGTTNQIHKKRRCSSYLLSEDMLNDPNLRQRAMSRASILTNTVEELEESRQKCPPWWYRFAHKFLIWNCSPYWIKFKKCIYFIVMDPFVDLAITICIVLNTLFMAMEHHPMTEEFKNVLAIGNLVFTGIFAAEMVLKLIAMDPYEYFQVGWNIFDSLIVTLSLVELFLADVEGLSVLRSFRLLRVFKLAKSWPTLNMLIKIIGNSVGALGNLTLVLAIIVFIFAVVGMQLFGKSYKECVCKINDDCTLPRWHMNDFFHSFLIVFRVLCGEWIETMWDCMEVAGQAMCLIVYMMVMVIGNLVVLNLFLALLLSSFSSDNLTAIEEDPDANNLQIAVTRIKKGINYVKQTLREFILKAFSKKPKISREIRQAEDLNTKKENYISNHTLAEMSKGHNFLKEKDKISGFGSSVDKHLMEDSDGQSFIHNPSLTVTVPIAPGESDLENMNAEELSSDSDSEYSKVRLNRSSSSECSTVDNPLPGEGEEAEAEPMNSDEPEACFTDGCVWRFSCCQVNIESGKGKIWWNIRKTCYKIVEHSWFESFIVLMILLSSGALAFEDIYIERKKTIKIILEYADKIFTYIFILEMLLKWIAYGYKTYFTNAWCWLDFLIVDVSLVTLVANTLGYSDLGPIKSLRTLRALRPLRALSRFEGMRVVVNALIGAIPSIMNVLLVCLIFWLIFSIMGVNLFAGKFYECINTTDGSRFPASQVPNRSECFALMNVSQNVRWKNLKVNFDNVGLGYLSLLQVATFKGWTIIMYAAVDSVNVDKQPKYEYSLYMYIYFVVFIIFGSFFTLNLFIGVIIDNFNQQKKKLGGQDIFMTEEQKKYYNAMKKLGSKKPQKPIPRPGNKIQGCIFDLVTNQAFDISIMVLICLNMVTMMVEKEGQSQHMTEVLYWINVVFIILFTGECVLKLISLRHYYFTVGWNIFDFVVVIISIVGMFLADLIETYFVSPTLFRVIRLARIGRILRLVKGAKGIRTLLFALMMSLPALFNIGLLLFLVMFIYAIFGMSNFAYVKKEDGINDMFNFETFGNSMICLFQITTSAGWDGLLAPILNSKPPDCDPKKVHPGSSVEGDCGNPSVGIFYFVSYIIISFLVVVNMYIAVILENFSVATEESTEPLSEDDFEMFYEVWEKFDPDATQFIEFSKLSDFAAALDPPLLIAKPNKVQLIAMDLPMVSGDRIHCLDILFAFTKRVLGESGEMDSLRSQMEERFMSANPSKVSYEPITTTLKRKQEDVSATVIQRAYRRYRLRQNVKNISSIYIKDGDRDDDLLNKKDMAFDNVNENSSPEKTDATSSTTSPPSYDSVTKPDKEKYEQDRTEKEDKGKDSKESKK
Procedure: as §1, §2, §3, §4, §5, §6, §7, §8, §9, §10, §11

Row | SMILES | IC50 [1] [nM] | IC50 [2] [nM]
1 | COc1cc(/C=N/NC(=O)c2cncc(-c3ccc(OC)cc3O)n2)cc(OC)c1 [Compound 5, (E)-N′-(3,5-dimethoxybenzylidene)-6-(2-hydroxy-4-methoxyphenyl)pyrazine-2-carbohydrazide] | < 500 | > 1000
2 | Cc1cc(C)cc(/C=N/NC(=O)c2cncc(-c3ccc(O)cc3)n2)c1 [Compound 2, (E)-N′-(3,5-dimethylbenzylidene)-6-(4-hydroxyphenyl)pyrazine-2-carbohydrazide] | > 1000 | > 1000
3 | CCOc1ccc(-c2cncc(C(=O)N/N=C/c3cc(OC)ccc3F)n2)c(O)c1 [Compound 8, (E)-6-(4-ethoxy-2-hydroxyphenyl)-N′-(2-fluoro-5-methoxybenzylidene)pyrazine-2-carbohydrazide] | 500 to 1000 | > 1000
4 | COc1ccc(-c2cnc(O)c(C(=O)N/N=C/c3cc(OC)cc(OC)c3)n2)cc1 [Compound 14, (E)-N′-(3,5-dimethoxybenzylidene)-3-hydroxy-6-(4-methoxyphenyl)pyrazine-2-carbohydrazide] | > 1000 | > 1000
5 | CCOc1ccc(-c2nc(C(=O)N/N=C/c3cccc(OC)c3)cnc2O)c(F)c1 [Compound 18, (E)-6-(4-ethoxy-2-fluorophenyl)-5-hydroxy-N′-(3-methoxybenzylidene)pyrazine-2-carbohydrazide] | > 1000 | > 1000
6 | COc1ccc(-c2cncc(C(=O)N/N=C/c3cc(C)cc(C)c3)n2)c(O)c1 [Compound 7, (E)-N′-(3,5-dimethylbenzylidene)-6-(2-hydroxy-4-methoxyphenyl)pyrazine-2-carbohydrazide] | < 500 | > 1000
7 | COc1ccc(-c2cnc(O)c(C(=O)N/N=C/c3cc(C)cc(C)c3)n2)cc1 [Compound 15, (E)-N′-(3,5-dimethylbenzylidene)-3-hydroxy-6-(4-methoxyphenyl)pyrazine-2-carbohydrazide] | > 1000 | > 1000
8 | O=C(N/N=C/c1cncc(O)c1)c1cncc(-c2ccc(O)cc2)n1 [Compound 4, (E)-6-(4-hydroxyphenyl)-N′-((5-hydroxypyridine-3-yl)methylene)pyrazine-2-carbohydrazide] | > 1000 | > 1000
9 | CCOc1ccc(-c2cncc(C(=O)N/N=C/c3cc(OC)ccc3O)n2)cc1 [Compound 28, (E)-6-(4-ethoxyphenyl)-N′-(2-hydroxy-5-methoxybenzylidene)pyrazine-2-carbohydrazide] | < 500 | > 1000
10 | COc1ccc(-c2cncc(C(=O)N/N=C/c3cc(O)cc(O)c3)n2)cc1 [Compound 20, (E)-N′-(3,5-dihydroxybenzylidene)-6-(4-methoxyphenyl)pyrazine-2-carbohydrazide] | > 1000 | > 1000
11 | CCOc1ccc(-c2cnc(O)c(C(=O)N/N=C/c3cccc(OC)c3)n2)c(F)c1 [Compound 19, (E)-6-(4-ethoxy-2-fluorophenyl)-3-hydroxy-N′-(3-methoxybenzylidene)pyrazine-2-carbohydrazide] | > 1000 | > 1000
12 | COc1cc(/C=N/NC(=O)c2cncc(-c3ccc(OC)c(O)c3)n2)cc(OC)c1 [Compound 6, (E)-N′-(3,5-dimethoxybenzylidene)-6-(3-hydroxy-4-methoxyphenyl)pyrazine-2-carbohydrazide] | > 1000 | > 1000
13 | COc1ccc(-c2nc(C(=O)N/N=C/c3cc(C)cc(C)c3)cnc2O)cc1 [Compound 13, (E)-N′-(3,5-dimethylbenzylidene)-5-hydroxy-6-(4-methoxyphenyl)pyrazine-2-carbohydrazide] | > 1000 | > 1000
14 | CCOc1ccc(-c2cncc(C(=O)N/N=C/c3cncc(O)c3)n2)cc1 [Compound 29, (E)-6-(4-ethoxyphenyl)-N′-((5-hydroxypyridine-3-yl)methylene)pyrazine-2-carbohydrazide] | > 1000 | > 1000
15 | COc1ccc(-c2cncc(C(=O)N/N=C/c3cc(C)cc(O)c3)n2)cc1 [Compound 25, (E)-N′-(3-hydroxy-5-methylbenzylidene)-6-(4-methoxyphenyl)pyrazine-2-carbohydrazide] | 500 to 1000 | > 1000
16 | COc1ccc(-c2nc(C(=O)N/N=C/c3cc(OC)cc(OC)c3)cnc2O)cc1 [Compound 12, (E)-N′-(3,5-dimethoxybenzylidene)-5-hydroxy-6-(4-methoxyphenyl)pyrazine-2-carbohydrazide] | > 1000 | > 1000
17 | COc1ccc(-c2cncc(C(=O)N/N=C/c3cccc(O)c3)n2)cc1 [Compound 23, (E)-N′-(3-hydroxybenzylidene)-6-(4-methoxyphenyl)pyrazine-2-carbohydrazide] | > 1000 | > 1000
18 | COc1cc(/C=N/NC(=O)c2cncc(-c3ccc(O)cc3)n2)cc(OC)c1 [Compound 1, (E)-N′-(3,5-dimethoxybenzylidene)-6-(4-hydroxyphenyl)pyrazine-2-carbohydrazide] | > 1000 | > 1000
19 | CCOc1ccc(-c2cncc(C(=O)N/N=C/c3cc(OC)cnc3F)n2)c(O)c1 [Compound 9, (E)-6-(4-ethoxy-2-hydroxyphenyl)-N′-((2-fluoro-5-methoxypyridine-3-yl)methylene)pyrazine-2-carbohydrazide] | < 500 | > 1000
20 | COc1ccc(-c2cncc(C(=O)N/N=C/c3cc(O)cc(OC)c3)n2)cc1 [Compound 21, (E)-N′-(3-hydroxy-5-methoxybenzylidene)-6-(4-methoxyphenyl)pyrazine-2-carbohydrazide] | > 1000 | > 1000
21 | COc1ccc(F)c(/C=N/NC(=O)c2cncc(-c3ccc(O)cc3)n2)c1 [Compound 3, (E)-N′-(2-fluoro-5-methoxybenzylidene)-6-(4-hydroxyphenyl)pyrazine-2-carbohydrazide] | > 1000 | > 1000
22 | CCOc1ccc(-c2cncc(C(=O)N/N=C/c3cc(C)cc(O)c3)n2)cc1 [Compound 26, (E)-6-(4-ethoxyphenyl)-N′-(3-hydroxy-5-methylbenzylidene)pyrazine-2-carbohydrazide] | < 500 | > 1000
23 | CCOc1ccc(-c2cncc(C(=O)N/N=C/c3cc(O)ccc3F)n2)cc1 [Compound 27, (E)-6-(4-ethoxyphenyl)-N′-(2-fluoro-5-hydroxybenzylidene)pyrazine-2-carbohydrazide] | 500 to 1000 | > 1000
24 | CCOc1ccc(-c2nc(C(=O)N/N=C/c3cc(OC)cnc3F)cnc2O)cc1 [Compound 16, (E)-6-(4-ethoxyphenyl)-N′-((2-fluoro-5-methoxypyridine-3-yl)methylene)-5-hydroxypyrazine-2-carbohydrazide] | > 1000 | > 1000
25 | COc1ccc(-c2cncc(C(=O)N/N=C/c3ccc(O)cc3)n2)cc1 [Compound 22, (E)-N′-(4-hydroxybenzylidene)-6-(4-methoxyphenyl)pyrazine-2-carbohydrazide] | > 1000 | > 1000
26 | COc1ccc(-c2cncc(C(=O)N/N=C/c3ccccc3O)n2)cc1 [Compound 24, (E)-N′-(2-hydroxybenzylidene)-6-(4-methoxyphenyl)pyrazine-2-carbohydrazide] | > 1000 | > 1000
